Measured values taken from patent US20120009674A1, “Use of a GSK-3 Inhibitor to Maintain Potency of Cultured Cells” (ABT Holding Company, priority 2005, published 2012).

Legend:
[1] = system: mouse embryonic stem (ES) cell; details: mouse ES cells; Oct-3a, Rex-1 and Nanog expression; cited from earlier work
[2] = system: human embryonic stem (ES) cell; details: human ES cells; Oct-3a, Rex-1 and Nanog expression; cited from earlier work
[3] = Stability of BIO in culture, expansion media without cells (mass spectroscopy); assay type: physicochemical; details: absence of cells, 72-hour period, 1 μM BIO, 37° C., 18% O2, 5% CO2, expansion media
Oct-3A = assay: Western blot of Oct-3A protein in BIO treated MAPCs; assay type: cell-based, human; details: BIO treated vs untreated MAPCs from the same donor, FIG. 3
CDK2-cyclin A = CDK2-cyclin A (Homo sapiens, UniProt P24941); details: at 10 μM; cited from earlier work
[4] = system: mouse mesodermal stem cell line; details: Chen, S., et al. (2003); cited from earlier work

O=C1Nc2cc(Br)ccc2/C1=C1/Nc2ccccc2/C1=N\O [BIO, 6-bromoindirubin-3′-oxime]
maintenance of ES cultures in an undifferentiated pluripotent state [1]: able to substitute for the addition of feeder cultures or addition of exogenous cytokines in maintaining the ES cultures in an undifferentiated pluripotent state
maintenance of ES cultures in an undifferentiated pluripotent state [2]: able to substitute for the addition of feeder cultures or addition of exogenous cytokines in maintaining the ES cultures in an undifferentiated pluripotent state
BIO stable (native BIO remaining) [3]: approximately 95%
Oct-3A protein level (Western blot) (Oct-3A): increases or protects the amount of detectable Oct-3A

CN(C)CCC(=O)Nc1n[nH]c2nnc(-c3ccccc3)cc12 [Pyrazolopyridine 9]
Inhibits CDK2-cyclin A (CDK2-cyclin A): A (90% at 10 μM)

CCCC(=O)Nc1n[nH]c2ncc(-c3ccccc3F)cc12 [Pyrazolopyridine 18]
Inhibits CDK2-cyclin A (CDK2-cyclin A): A (95% at 10 μM)

c1nc2nc(Nc3ccc(N4CCOCC4)cc3)nc(NC3CCCCC3)c2[nH]1 [reversine]
de-differentiation of committed myoblast [4]: acted to “de-differentiate” the cell line from a committed myoblast, back to the multipotent precursor
